Assay results published in US5441983A, “Treatment of infection by enveloped virus with calix(N)arene compounds” (Genelabs Incorporated, priority 1992, dated 1995).
Values after ≈ are worked out from the molar mass of the structure shown. Like-named read-outs stand apart in the source and are kept apart here.

What was measured:
HSV-2 [1] = assay: Plaque reduction assay, HSV-2, Vero cells; format: cell-based, HSV-2 (333); conditions: Human alphaherpesvirus 2, Vero
Experimental: (§1) used in Table 3 were further tested for activity against HSV infection in
(§2) a plaque reduction assay, as detailed in Example 6. Here Vero cells, after
(§3) overnight incubation, were exposed to serial dilutions of KY compound,
(§4) from 0.625-10 μg/ml, and HSV-1 or HSV-2 virus for two hours. After
(§5) washing to remove drug and extracellular virus, the cells were further
(§6) incubated for 2 days, then stained and counted for plaque formation.
(§7) Percent inhibition was determined by dividing plaques produced by total
(§8) number of plaques in infected, untreated controls. From the concentration
(§9) effect curve of plaque inhibition (expressed as percent of control), the
(§10) concentration of compound required to produce 50% plaque reduction,
(§11) IC50, was determined. The IC50 values for infection by HSV-1 and
(§12) HSV-2 infection is given in the right-hand columns in Table 3. With

HIV-HXB = assay: Inhibition of syncytia formation, HIV-HXB (HTLV-IIIB); conditions: Human immunodeficiency virus 1, 18 h, read-out: HIV-HXB ED100, complete inhibition of syncytia formation
HSV-1 [2] = assay: Plaque reduction assay, HSV-1, Vero cells; format: cell-based, HSV-1 (Kos-1); conditions: Human alphaherpesvirus 1, Vero, plaque reduction, Vero cells
Experimental: as §1, §2, §3, §4, §5, §6, §7, §8, §9, §10, §11, §12

HIV-RF-II = assay: Inhibition of syncytia formation, HIV-RF-II; conditions: for EC100: Human immunodeficiency virus 1, 18 h, read-out: HIV-RF-II ED100, complete inhibition of syncytia formation
Influenza A (Taiwan) = assay: Inhibition of influenza A cytopathic effect (clumping) in MDCK cells; format: cell-based, Influenza A virus (A/Taiwan strain); conditions: Influenza A virus, 24 h, 50% reduction in percent clumped cells, read-out: ED50 Influenza A (Taiwan)
Experimental: With virus infection, a cytopathic effect characterized by cell clumping is observed. For each compound tested, drug concentrations of 0.1, 1, 10, 25, and 100 μg/ml were added to cultured cells at the time of virus infection, as detailed in Examples 9 and 11. […] The inhibition of clumping was plotted as a function of drug concentration, to determine the dose effective to produce a 50% reduction in the percent clumped cells, measured with respect to control (no drug treatment).
Assays to assess the antiviral activity of KY- and Y-compounds in tissue culture were performed in 96-well flat-bottom tissue culture plates (Falcon 307), using conditions similar to those used in the cytotoxicity assays described above. In these assays, compound was tested in quadruplicate by serially diluting the compound in 2% FCS-MEM using serial two-fold dilutions (0.05 ml/well). A 0.05 ml volume of the appropriate virus containing approximately 100 median tissue culture infectious doses (TCID50) was then added to all wells except those set aside as antiviral and tissue control wells. Next, approximately 3×10^3 HEp2 cells (0.1 ml) were added to each well. Control wells containing antiviral and no virus (antiviral control), containing virus but no antiviral (virus control), or containing medium without virus or antiviral (tissue control), were included in each test. The challenge virus was then back titrated. All assay plates were incubated at 35° C. for 5 to 7 days in a 5% CO2 incubator.
The anti-influenza A activity of KY compounds was evaluated as described in Example 9, except that MDCK cells (kidney cell line) was used for infection in vitro by influenza virus (strain A/Taiwan).

RSV = assay: Inhibition of RSV cytopathic effect in HEp2 cells; format: cell-based; conditions: human respiratory syncytial virus, HEp-2; HEp2 cells, cytopathic effect; read-out: ED50 RSV
HSV-2 333 = assay: Inhibition of viral yield, wild type HSV-2 333; conditions: Human alphaherpesvirus 2, HeLa, read-out: ID90
Experimental: (§13) These compounds tested were the nucleoside analogs acyclovir (ACV), ganciclovir (DHPG), phosphonoformate (PFA), and phosphomethoxyethyladenine (PMEA). Inhibition of viral yield was determined, as above, by infecting Hela cells in the presence of wild type or drug-resistant strains of HSV-1 or HSV-2, and serial dilutions of a selected anti-viral compound, and infecting Vero cells with serial dilutions of the Hela cell lysate, as above.
(§14) The KOS (HSV-1) and 333 (HSV-2) are wild type viruses; the KOS(PMEA)' and KOS(PFA)' are drug-resistant HSV-1 strains having a DNA polymerase mutation. The 333(DHPG) strain is a drug-resistantHSV-2 strain having a thymidine kinase mutation.
(§15) The following strains of HSV-1 and HSV-2 virus were used: KOS, a wild type HSV-1 virus; KOS (PMEA) and KOS (PFA), both drug-resistant HSV-1 viruses having a DNA polymerase mutation; 333, a wild type HSV-2 HSV-2 virus, and 333 (DHPG), a drug-resistant HSV-2 virus having a thymidine kinase mutation.
(§16) After growth at 37° C. for 24 hours in 2 ml of RPMI-1640 containing 2% FCS and penicillin and streptomycin (P/S), the cells were frozen at -70° C. until the time for titration. The cells were freeze/thawed 3 times to release virus from the cells, serially diluted 10 fold, and the serial dilutions were added to Vero cells in culture. After 2 hours incubation at 37° C. the virus was removed and 0.5 ml methycellulose (4K cps) in RPMI-1640 and 2% FCS+P/S was added. Two days later, the medium was removed. The cells were stained in 0.8% crystal violet in 50% ethanol. The plaques formed were counted and the titer was calculated from the fold of dilutions. From the drug dose response, the concentration of each drug required to effect a 90% inhibition of virus yield, the IC90 concentration was determined.

HSV-1 KOS = assay: Inhibition of viral yield, wild type HSV-1 KOS; conditions: Human alphaherpesvirus 1, HeLa, read-out: ID90
Experimental: as §13, §14, §15, §16

HSV-1 KOS(PMEA)' = assay: Inhibition of viral yield, drug-resistant HSV-1 KOS(PMEA)'; conditions: Human alphaherpesvirus 1, HeLa, read-out: ID90
Experimental: as §13, §14, §15, §16

HSV-2 333 (DHPG)' = assay: Inhibition of viral yield, drug-resistant HSV-2 333(DHPG)'; conditions: Human alphaherpesvirus 2, HeLa, read-out: ID90
Experimental: as §13, §14, §15, §16

HSV-1 KOS (PFA)' = assay: Inhibition of viral yield, drug-resistant HSV-1 KOS(PFA)'; conditions: Human alphaherpesvirus 1, HeLa, read-out: ID90
Experimental: as §13, §14, §15, §16

HSV-1 [3] = assay: HSV-1 viral yield inhibition by combined drug exposure; format: cell-based; conditions: HSV-1, FIG. 34A
Excerpt: With either drug alone, a maximum decrease in viral yield was slightly less than three logs (orders of magnitude).
Two days later, the medium was removed.

HSV-2 [4] = assay: Topical treatment of genital HSV-2 infection, guinea pigs, second study; conditions: 5%, 24 h
Experimental: In another study using the guinea pig genital model described above, animals were infected with HSV-2, then treated with KY-1 or Y-1 topically at concentrations of 2% or 5% drug. […] Animals were treated and scored daily for severity of infection for 19 days.
(§17) The MS strain of HSV-2 was utilized for the experimental animal infection. Female Hartley strain guinea pigs (Charles River Breeding Laboratories, Kingston, NY) weighing 250-300 g were inoculated intravaginally with 2.0×10^5 plaque-forming units of HSV-2 one hour after being swabbed for removal of vaginal secretions.
Formulations of KY-1 or Y-1 were prepared by dissolving the compound in a 1.5% methyl cellulose solution such that final concentration of compound was 2% or 5% (wt/wt). Control animals were given either no treatment (N=10 animals) or treatment with placebo (1.5% methylcellulose solution).
(§18) To determine the effect of therapy on the development and spread of external genital lesions, lesion severity was scored on a 0-5+ scale through the primary infection period (19-21 days). Lesion score-day areas and virus titer-day areas under the curve, and peak lesion scores and peak virus titers between untreated and placebo-treated or placebo-treated and drug-treated animals were compared using the Mann-Whitney U range sum test. A p-value of 0.05 or less was considered significant.
Animals were scored daily for 19 days following inoculation for presence of lesions and severity of lesions (on a 0-5+ point scale). Lesion scores were tabulated as area under the curve of daily lesion score vs. time (days) and peak lesion score observed. A known antiviral agent, acyclovir (ACV) was administered in a 5% formulation to 8 animals as a positive control in the study.

HSV-2 [5] = assay: Topical treatment of genital HSV-2 infection, guinea pigs, first study; conditions: 5%
Experimental: Briefly, female guinea pigs were infected intravaginally with HSV-2, then treated topically three times daily beginning 6 hours or 48 hours after inoculation with HSV-2, as described in Example 13. […] Swabs of vaginal secretion were obtained and assayed for viral activity by a standard CPE assay. The severity of genital lesions was scored on a 0-5+ scale through the period of primary infection (21 days).
as §17
In the first study, groups of 10 guinea pigs were treated topically (0.1 ml intravaginally +0.1 ml on external genital skin) three times daily (approximately every eight hours) for seven days beginning 6 h or 48 h after inoculation with HSV-2.
To determine the effect of treatment on vaginal viral replication, swabs of vaginal secretions were obtained on days 1, 3, 5, 7 and 10 after HSV inoculation, placed in a tube containing 2.0 ml of media, vortexed and frozen at -70° C. until titrated for HSV-2. When all samples were collected, they were thawed, diluted serially and HSV-2 titers determined using rabbit kidney cells in a microtiter CPE assay.
as §18

HSV-1 or HSV-2 = assay: Inhibition of HSV cytopathic effect (CPE) in Vero cells; conditions: 10-20 μg/ml
Experimental: In the method reported in Example 5, Vero cells were infected with HSV-1 or HSV-2 and allowed to grow in culture until cytopathic effects were clearly visible. In the absence of infection, the cells form an even monolayer of fibro-blastlike cells. With HSV infection, a cytopathic effect characterized by round cells in suspension is clearly evident after 24 hours, followed by clumping and lysis of infected cells after 24-72 hours.
In the drug inhibition study reported in Example 5, cells were exposed to HSV-1 or HSV-2 virus and, at the same time, to a selected aryl macrocyclic compound, at a final drug concentration of 10 μg/ml. Twenty-four hours later the cells were examined for cytopathic effect.
Vero cells were maintained in RPMI-1640 medium supplemented with 5% fetal calf serum, 100 Units of penicillin per ml and 100 μg of streptomycin per ml at 37° C. in a humidified incubator containing 7% CO2. The HSV strains HSV-1 (Kos-1) and HSV-2 (333) were used.
1×10^5 Vero cells were plated in each well of a 96 well microtitre plate in 0.2 ml RPMI-1640 medium containing 5% FCS and 0.1% methyl cellulose (15 cps). After overnight incubation, and cell doubling, the medium was aspirated and replaced with 100 .1 of the same medium containing 2% FCS, and 50.1 control or drug solution to a final drug concentration of 10 μg/ml and 50 μl virus, containing about 3 PFU/cell, i.e., 6 x 10^s PFU/well, of HSV-1 or HSV-2.
The cells were cultured for 24 hours at 37° C. at which time cytopathic effects are clearly visible. In the absence of viral infection, the cells form an even monolayer of fibroblast cells. With viral infection, the cells form a suspension of round cells, followed by cell clumping, whose appearance is easily distinguishable from normal fibroblast cells. If no detectable cytopathic effect was produced, the test was repeated with 10 μg/ml. A parallel set of cells without virus inoculation were done as a control for cytotoxicity to Vero cells.

[6] = test system: panel of human cell lines; assay: Cytotoxicity in proliferating human cell lines; format: cell-based; conditions: 72 h, read-out: IC50 drug concentration (50% cell death)
Experimental: In addition, a large number of representative aryl macrocyclic compounds (including those shown in Tables 1 and 2) were examined for toxicity in cell culture, using a panel of human cell lines, as detailed in Example 4. Briefly, the selected KY- or Y- compound was added to cell cultures at a final concentration of 5, 10, 25, 50, or 100 μg/ml. Three days later the cells were washed to remove drug, and stained with a vital stain, to determine the percentage of dead cells in each culture. The IC50 drug concentration, i.e., value concentration of drug which produced 50% cell death, was 50 μg/ml for KY-143, KY-151, and KY-163, and 100 μg/ml or greater for all of the other KY compounds tested. For KY-1, which has a molecular weight of 1404 daltons, a drug concentration of 100 μg/ml is equivalent to about […].
A panel of human cell lines was used to check the toxicity of the drugs, including: KB (nasopharyngeal carcinoma), HeLaS3 (cervical epithelial carcinoma), PLC (hepatocarcinoma), HepG2 (human hepatocarcinoma) HepG2T14 (hepatocarcinoma transfected with HBV), WI38 (normal human lung fibroblast), BT549 (breast cancer), SW480 ([…]), and A549 (lung cancer).
Three days later, the medium was removed and the cells were stained with Commassie Blue in 40% methanol and 7% acetic acid. The results are discussed in Section II above.

SMILES | IC50 (HSV-2 [1]) | EC100 (HIV-HXB) | IC50 (HSV-1 [2]) | EC100 (HIV-RF-II) | EC50 (Influenza A (Taiwan)) | EC50 (RSV) | IC90 (HSV-2 333) | IC90 (HSV-1 KOS) | IC90 (HSV-1 KOS (PFA)') | protection from CPE, in words (HSV-1 or HSV-2) | further results
O=S(=O)(O)c1c2c(O)c3c(O)c(c(S(=O)(=O)O)c(Br)c3c1Br)Cc1c(S(=O)(=O)O)c(Br)c3c(Br)c(S(=O)(=O)O)c(c(O)c3c1O)Cc1c(S(=O)(=O)O)c(Br)c3c(Br)c(S(=O)(=O)O)c(c(O)c3c1O)Cc1c(S(=O)(=O)O)c(Br)c3c(Br)c(S(=O)(=O)O)c(c(O)c3c1O)C2 [KY-194] | 1 µg/mL (≈ 0.51 µM) | 63 µg/mL | 1 µg/mL (≈ 0.51 µM) | 125 µg/mL | 7.9 µg/mL (≈ 4.03 µM) | 0.5 µg/mL (≈ 0.255 µM) | – | – | – | – | –
Nc1nc2c(ncn2COCCO)c(=O)[nH]1 [ACV, acyclovir, reference compound] | – | – | – | – | – | – | ~10 µM | 14 µM | 100 µM | – | IC90 (HSV-1 KOS(PMEA)'): 380 µM; IC90 (HSV-2 333 (DHPG)'): > 100 µM; maximum decrease in viral yield, either drug alone (HSV-1 [3]): less than three; % Animals with Lesions (HSV-2 [4]): 37.5%; Lesion Score (AUC) (HSV-2 [4]): 11.7; Mean Peak lesion score (HSV-2 [4]): 1.5; Lesion score Area Under Curve (HSV-2 [5]; +6 h): 2.7; Mean Peak lesion score (HSV-2 [5]; +6 h): 0.6; Lesion score Area Under Curve (HSV-2 [5]; +48 h): 45.8; Mean Peak lesion score (HSV-2 [5]; +48 h): 3.8
CC(=O)C1c2c(S(=O)(=O)O)cc3cc(S(=O)(=O)O)c(c(O)c3c2O)C(C(C)=O)c2c(S(=O)(=O)O)cc3cc(S(=O)(=O)O)c(c(O)c3c2O)C(C(C)=O)c2c(S(=O)(=O)O)cc3cc(S(=O)(=O)O)c(c(O)c3c2O)C(C(C)=O)c2c(S(=O)(=O)O)cc3cc(S(=O)(=O)O)c1c(O)c3c2O (stereo not drawn) [KY-110] | > 10 µg/mL | 63 µg/mL | > 10 µg/mL | – | > 250 µg/mL | 4 µg/mL (≈ 2.67 µM) | – | – | – | low activity | –
Nc1ncnc2c1ncn2CCOCP(=O)(O)O [PMEA, phosphomethoxyethyladenine] | – | – | – | – | – | – | 155 µM | 100 µM | > 1000 µM | – | IC90 (HSV-1 KOS(PMEA)'): > 2000 µM; IC90 (HSV-2 333 (DHPG)'): 120 µM
COc1c2c(S(=O)(=O)O)cc3cc(S(=O)(=O)O)c(c(OC)c13)Cc1c(S(=O)(=O)O)cc3cc(S(=O)(=O)O)c(c(OC)c3c1OC)Cc1c(S(=O)(=O)O)cc3cc(S(=O)(=O)O)c(c(OC)c3c1OC)Cc1c(S(=O)(=O)O)cc3cc(S(=O)(=O)O)c(c(OC)c3c1OC)C2 [KY-151] | 1.8 µg/mL (≈ 1.25 µM) | 32 µg/mL | 1.25 µg/mL (≈ 0.867 µM) | – | > 94 µg/mL | 1.5 µg/mL (≈ 1.04 µM) | – | – | – | – | HIV-RF-II ED100 (HIV-RF-II; complete inhibition of syncytia formation): 125; IC50 ([6]; Homo sapiens): 50 µg/mL (≈ 34.7 µM)
Nc1nc(O)c2ncn(COC(CO)CO)c2n1 [DHPG, ganciclovir] | – | – | – | – | – | – | 2 µM | 2 µM | 1 µM | – | IC90 (HSV-2 333 (DHPG)'): 215 µM
COS(=O)(=O)c1cc2cc(S(=O)(=O)OC)c3c(O)c2c(O)c1Cc1c(S(=O)(=O)OC)cc2cc(S(=O)(=O)OC)c(c(O)c2c1O)Cc1c(S(=O)(=O)OC)cc2cc(S(=O)(=O)OC)c(c(O)c2c1O)Cc1c(S(=O)(=O)OC)cc2cc(S(=O)(=O)OC)c(c(O)c2c1O)C3 [KY-175] | > 10 µg/mL | 63 µg/mL | > 10 µg/mL | 250 µg/mL | – | – | – | – | – | low activity | –
C=CC1c2c(S(=O)(=O)O)cc3cc(S(=O)(=O)O)c(c(O)c3c2O)C(C=C)c2c(S(=O)(=O)O)cc3cc(S(=O)(=O)O)c(c(O)c3c2O)C(C=C)c2c(S(=O)(=O)O)cc3cc(S(=O)(=O)O)c(c(O)c3c2O)C(C=C)c2c(S(=O)(=O)O)cc3cc(S(=O)(=O)O)c1c(O)c3c2O (stereo not drawn) [KY-97] | > 10 µg/mL | 32 µg/mL | > 10 µg/mL | – | 5 µg/mL (≈ 3.49 µM) | 0.5 µg/mL (≈ 0.349 µM) | – | – | – | – | –
O=S(O)c1cc2cc(S(=O)O)c3c(O)c2c(O)c1Cc1c(S(=O)O)cc2cc(S(=O)O)c(c(O)c2c1O)Cc1c(S(=O)O)cc2cc(S(=O)O)c(c(O)c2c1O)Cc1c(S(=O)O)cc2cc(S(=O)O)c(c(O)c2c1O)C3 [KY-123] | 1.5 µg/mL (≈ 1.25 µM) | 16 µg/mL | 1.5 µg/mL (≈ 1.25 µM) | 16 µg/mL | 31.3 µg/mL (≈ 26.1 µM) | 1 µg/mL (≈ 0.832 µM) | – | – | – | – | –
O=S(=O)(O)c1c2c(O)c3c(O)c(c(S(=O)(=O)O)c(O)c3c1O)Cc1c(S(=O)(=O)O)c(O)c3c(O)c(S(=O)(=O)O)c(c(O)c3c1O)Cc1c(S(=O)(=O)O)c(O)c3c(O)c(S(=O)(=O)O)c(c(O)c3c1O)Cc1c(S(=O)(=O)O)c(O)c3c(O)c(S(=O)(=O)O)c(c(O)c3c1O)C2 [KY-143] | > 10 µg/mL | 250 µg/mL | > 10 µg/mL | 125 µg/mL | – | – | – | – | – | low activity | IC50 ([6]; panel of human cell lines, 3 days): 50 µg/mL (≈ 34.3 µM)
O=C(O)P(=O)(O)O [PFA, phosphonoformate] | – | – | – | – | – | – | 150 µM | 180 µM | > 1000 µM | – | IC90 (HSV-1 KOS(PMEA)'): 3000 µM
CS(=O)(=O)c1cc2cc(S(C)(=O)=O)c3c(O)c2c(O)c1Cc1c(S(C)(=O)=O)cc2cc(S(C)(=O)=O)c(c(O)c2c1O)Cc1c(S(C)(=O)=O)cc2cc(S(C)(=O)=O)c(c(O)c2c1O)Cc1c(S(C)(=O)=O)cc2cc(S(C)(=O)=O)c(c(O)c2c1O)C3 [KY-158] | > 10 µg/mL | 500 µg/mL | > 10 µg/mL | 7500 µg/mL | – | – | – | – | – | low activity | –
